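Method: 48-hour compound exposure of cells in 96-well plates, five concentrations, linear interpolation of endpoints. Here, GI50 denotes the concentration required for 50% inhibition of growth.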 Calls of active or inactive are those of the source. No stated cut-off is given here; in the data, active = GI50 up to about 1.1 µM and inactive = higher.
Tests used:
Assay in all cases: NCI-60 cell line screen, 48 h
786-0 = system: 786-0
A549 = system: A549
ACHN = system: ACHN
BT-549 = system: BT-549
CAKI-1 = system: CAKI-1
CCRF-CEM = system: CCRF-CEM
COLO 205 = system: COLO 205
DU-145 = system: DU-145
HCC 2998 = system: HCC 2998
HCT-116 = system: HCT-116
HCT-15 = system: HCT-15
HL-60 = system: HL-60
HOP-62 = system: HOP-62
HOP-92 = system: HOP-92
HT-29 = system: HT-29
Hs-578T = system: Hs-578T
IGROV-1 = system: IGROV-1
LOX IMVI = system: LOX IMVI
MCF7 = system: MCF7
MDA-MB-435 = system: MDA-MB-435
Malme-3M = system: Malme-3M
NCI-H226 = system: NCI-H226
NCI-H23 = system: NCI-H23
NCI-H460 = system: NCI-H460
NCI-H522 = system: NCI-H522
NCI/ADR-RES = system: NCI/ADR-RES
OVCAR-3 = system: OVCAR-3
OVCAR-4 = system: OVCAR-4
OVCAR-5 = system: OVCAR-5
OVCAR-8 = system: OVCAR-8
PC-3 = system: PC-3
RXF 393 = system: RXF 393
SF-268 = system: SF-268
SF-295 = system: SF-295
SF-539 = system: SF-539
SK-MEL-28 = system: SK-MEL-28
SK-MEL-2 = system: SK-MEL-2
SK-MEL-5 = system: SK-MEL-5
SK-OV-3 = system: SK-OV-3
SN12C = system: SN12C
SNB-19 = system: SNB-19
SNB-75 = system: SNB-75
SR = system: SR
SW-620 = system: SW-620
TK-10 = system: TK-10
U-251 = system: U-251
UACC-257 = system: UACC-257
UACC-62 = system: UACC-62
UO-31 = system: UO-31

Cc1ccc(N2CCc3c(C)c(C#N)c4nc5ccccc5n4c32)cc1
GI50 (786-0): 12.1 µM (inactive) | GI50 (A549): > 100 µM (inactive) | GI50 (ACHN): > 100 µM (inactive) | GI50 (BT-549): > 100 µM (inactive) | GI50 (CAKI-1): 70.6 µM (inactive) | GI50 (CCRF-CEM): > 100 µM (inactive) | GI50 (COLO 205): 90.6 µM (inactive) | GI50 (DU-145): > 100 µM (inactive) | GI50 (HCC 2998): > 100 µM (inactive) | GI50 (HCT-116): > 100 µM (inactive) | GI50 (HCT-15): > 100 µM | GI50 (HL-60): > 100 µM (inactive) | GI50 (HOP-62): 36.6 µM (inactive) | GI50 (HOP-92): 10.4 µM (inactive) | GI50 (HT-29): > 100 µM (inactive) | GI50 (Hs-578T): 16 µM (inactive) | GI50 (IGROV-1): 68.1 µM (inactive) | GI50 (LOX IMVI): > 100 µM (inactive) | GI50 (MCF7): > 100 µM (inactive) | GI50 (MDA-MB-435): 6.27 µM (inactive) | GI50 (Malme-3M): > 100 µM (inactive) | GI50 (NCI-H226): > 100 µM (inactive) | GI50 (NCI-H23): > 100 µM (inactive) | GI50 (NCI-H460): 99.1 µM (inactive) | GI50 (NCI-H522): 9.04 µM (inactive) | GI50 (NCI/ADR-RES): > 100 µM (inactive) | GI50 (OVCAR-3): > 100 µM (inactive) | GI50 (OVCAR-4): > 100 µM (inactive) | GI50 (OVCAR-5): > 100 µM (inactive) | GI50 (OVCAR-8): 49.3 µM (inactive) | GI50 (PC-3): > 100 µM (inactive) | GI50 (RXF 393): 32.1 µM (inactive) | GI50 (SF-268): 31.8 µM (inactive) | GI50 (SF-295): 41.6 µM (inactive) | GI50 (SF-539): 39.3 µM (inactive) | GI50 (SK-MEL-28): > 100 µM (inactive) | GI50 (SK-MEL-2): 23.8 µM (inactive) | GI50 (SK-MEL-5): > 100 µM (inactive) | GI50 (SK-OV-3): 59.3 µM (inactive) | GI50 (SN12C): > 100 µM (inactive) | GI50 (SNB-19): 37.4 µM (inactive) | GI50 (SNB-75): 22.7 µM (inactive) | GI50 (SR): 2.94 µM (inactive) | GI50 (SW-620): 85.9 µM (inactive) | GI50 (TK-10): > 100 µM (inactive) | GI50 (U-251): 38.8 µM (inactive) | GI50 (UACC-257): > 100 µM (inactive) | GI50 (UACC-62): 27 µM (inactive) | GI50 (UO-31): > 100 µM (inactive)

— ChEMBL document CHEMBL1201862, “PubChem BioAssay data set” (2004)
